Results taken from ChEMBL document CHEMBL4402543, “Bioisosteric Development of Multitarget Nonsteroidal Anti-Inflammatory Drug-Carbonic Anhydrases Inhibitor Hybrids for the Management of Rheumatoid Arthritis” (J Med Chem, 2020).
The source made the active and inactive calls.

Tests used:
[1] = test system: Rattus norvegicus; experiment: Antihyperalgesic activity in Sprague-Dawley rat model of Complete freund's adjuvant-induced arthritis assessed as pain threshold of ipsilateral paw at 13.4 mg/kg, po starting from day 14 after CFA injection and measured at 15 mins by paw pressure test (reference value: 40.1 +/- 0.7 g); assay type: functional
[2] = test system: Rattus norvegicus; experiment: (§1) Antihyperalgesic activity in Sprague-Dawley rat model of Complete freund's adjuvant-induced arthritis assessed as reduction in difference between weight burdened on contralateral and ipsilateral paw at 13.4 mg/kg, po starting from day 14 after CFA injection and measured at 15 mins incapacitance test; assay type: functional, organism-based
[3] = test system: Rattus norvegicus; experiment: Antihyperalgesic activity in Sprague-Dawley rat model of Complete freund's adjuvant-induced arthritis assessed as pain threshold of ipsilateral paw at 13.4 mg/kg, po starting from day 14 after CFA injection and measured at 30 mins by paw pressure test (reference value: 40.1 +/- 0.7 g); assay type: functional
[4] = test system: Rattus norvegicus; experiment: Antihyperalgesic activity in Sprague-Dawley rat model of Complete freund's adjuvant-induced arthritis assessed as pain threshold of ipsilateral paw at 30 mg/kg, po starting from day 14 after CFA injection and measured at 15 mins by paw pressure test (reference value: 40.1 +/- 0.7 g); assay type: functional
[5] = biological target: COX1 (Prostaglandin G/H synthase 1) (Homo sapiens, UniProt P23219); experiment: Inhibition of COX1 in human platelet rich plasma in assessed as inhibition of ADP-induced platelet aggregation at 10 uM incubated for 5 mins by turbidimetry based Born's method relative to control
[6] = biological target: Carbonic anhydrase 1 (Homo sapiens) (UniProt P00915)
Description: Inhibition of human CA1 pre-incubated for 6 hrs by stopped- flow CO2 hydrase assay method based Cheng-Prusoff equation analysis

[7] = test system: Rattus norvegicus; experiment: as §1, with “10” for “13.4”, “15 to 30” for “15”; assay type: functional, organism-based
[8] = test system: Rattus norvegicus; experiment: Antihyperalgesic activity in Sprague-Dawley rat model of Complete freund's adjuvant-induced arthritis assessed as increase in pain threshold of ipsilateral paw at 3 to 30 mg/kg, po starting from day 14 after CFA injection and measured at 0 to 60 mins by paw pressure test; assay type: functional, organism-based
[9] = test system: Rattus norvegicus; experiment: Antihyperalgesic activity in Sprague-Dawley rat model of Complete freund's adjuvant-induced arthritis assessed as pain threshold of ipsilateral paw at 30 mg/kg, po starting from day 14 after CFA injection and measured at 45 mins by paw pressure test (reference value: 40.1 +/- 0.7 g); assay type: functional
[10] = test system: Rattus norvegicus; experiment: Antihyperalgesic activity in Sprague-Dawley rat model of Complete freund's adjuvant-induced arthritis assessed as pain threshold of ipsilateral paw at 3 mg/kg, po starting from day 14 after CFA injection and measured at 30 mins by paw pressure test (reference value: 40.1 +/- 0.7 g); assay type: functional
[11] = test system: Rattus norvegicus; experiment: Antihyperalgesic activity in Sprague-Dawley rat model of Complete freund's adjuvant-induced arthritis assessed as effect on pain threshold of ipsilateral paw at 30 mg/kg, po starting from day 14 after CFA injection and measured at 60 mins by paw pressure test; assay type: functional, organism-based
[12] = test system: Rattus norvegicus; experiment: as §1, with “30” for “13.4”, “15 to 45” for “15”; assay type: functional, organism-based
[13] = biological target: Carbonic anhydrase 2 (Homo sapiens) (UniProt P00918)
Description: Inhibition of human CA2 pre-incubated for 6 hrs by stopped- flow CO2 hydrase assay method based Cheng-Prusoff equation analysis

[14] = Half life in human plasma by LC-MS/MS analysis; assay type: ADME, cell-free
[15] = Half life in Sprague-Dawley rat plasma by LC-MS/MS analysis; assay type: ADME, cell-free
[16] = test system: Rattus norvegicus; experiment: as §1, with “3 to 30” for “13.4”, “0 to 60” for “15”; assay type: functional, organism-based
[17] = test system: Rattus norvegicus; experiment: Antihyperalgesic activity in Sprague-Dawley rat model of Complete freund's adjuvant-induced arthritis assessed as increase in pain threshold of ipsilateral paw at 10 mg/kg, po starting from day 14 after CFA injection and measured at 15 mins by paw pressure test; assay type: functional, organism-based
[18] = biological target: Carbonic anhydrase 7 (Homo sapiens) (UniProt P43166)
Description: Inhibition of human CA7 pre-incubated for 6 hrs by stopped- flow CO2 hydrase assay method based Cheng-Prusoff equation analysis

[19] = test system: Rattus norvegicus; experiment: Antihyperalgesic activity in Sprague-Dawley rat model of Complete freund's adjuvant-induced arthritis assessed as reduction in difference between weight burdened on contralateral and ipsilateral paw at 3 mg/kg, po starting from day 14 after CFA injection and measured at 30 mins incapacitance test; assay type: functional, organism-based
[20] = Stability in PBS; assay type: physicochemical; settings: buffer
[21] = biological target: Carbonic anhydrase 4 (Homo sapiens) (UniProt P22748)
Description: Inhibition of human CA4 pre-incubated for 6 hrs by stopped- flow CO2 hydrase assay method based Cheng-Prusoff equation analysis

[22] = test system: Rattus norvegicus; experiment: Antihyperalgesic activity in Sprague-Dawley rat model of Complete freund's adjuvant-induced arthritis assessed as increase in pain threshold of ipsilateral paw at 10 mg/kg, po starting from day 14 after CFA injection and measured at 45 mins by paw pressure test; assay type: functional, organism-based
[23] = biological target: Carbonic anhydrase 9 (Homo sapiens) (UniProt Q16790)
Description: Inhibition of human CA9 pre-incubated for 6 hrs by stopped- flow CO2 hydrase assay method based Cheng-Prusoff equation analysis

[24] = biological target: Carbonic anhydrase 12 (Homo sapiens) (UniProt O43570)
Description: Inhibition of human CA12 pre-incubated for 6 hrs by stopped- flow CO2 hydrase assay method based Cheng-Prusoff equation analysis

[25] = test system: Rattus norvegicus; experiment: Antihyperalgesic activity in Sprague-Dawley rat model of Complete freund's adjuvant-induced arthritis assessed as increase in pain threshold of ipsilateral paw at 10 mg/kg, po starting from day 14 after CFA injection and measured at 30 mins by paw pressure test; assay type: functional
[26] = test system: Rattus norvegicus; experiment: Antihyperalgesic activity in Sprague-Dawley rat model of Complete freund's adjuvant-induced arthritis assessed as reduction in difference between weight burdened on contralateral and ipsilateral paw at 10 mg/kg, po starting from day 14 after CFA injection and measured at 30 mins incapacitance test; assay type: functional, organism-based
[27] = test system: Rattus norvegicus; experiment: Antihyperalgesic activity in Sprague-Dawley rat model of Complete freund's adjuvant-induced arthritis assessed as pain threshold of ipsilateral paw at 30 mg/kg, po starting from day 14 after CFA injection and measured at 30 mins by paw pressure test (reference value: 40.1 +/- 0.7 g); assay type: functional
[28] = Solubility of the compound; assay type: physicochemical
[29] = test system: Rattus norvegicus; experiment: Antihyperalgesic activity in Sprague-Dawley rat model of Complete freund's adjuvant-induced arthritis assessed as reduction in difference between weight burdened on contralateral and ipsilateral paw at 30 mg/kg, po starting from day 14 after CFA injection and measured at 30 mins incapacitance test; assay type: functional, organism-based
[30] = test system: Rattus norvegicus; experiment: Antihyperalgesic activity in Sprague-Dawley rat model of Complete freund's adjuvant-induced arthritis assessed as increase in pain threshold of ipsilateral paw at 30 mg/kg, po starting from day 14 after CFA injection and measured at 0 to 60 mins by paw pressure test; assay type: functional, organism-based

Chain of COX1 (Prostaglandin G/H synthase 1) (P23219 whole entry): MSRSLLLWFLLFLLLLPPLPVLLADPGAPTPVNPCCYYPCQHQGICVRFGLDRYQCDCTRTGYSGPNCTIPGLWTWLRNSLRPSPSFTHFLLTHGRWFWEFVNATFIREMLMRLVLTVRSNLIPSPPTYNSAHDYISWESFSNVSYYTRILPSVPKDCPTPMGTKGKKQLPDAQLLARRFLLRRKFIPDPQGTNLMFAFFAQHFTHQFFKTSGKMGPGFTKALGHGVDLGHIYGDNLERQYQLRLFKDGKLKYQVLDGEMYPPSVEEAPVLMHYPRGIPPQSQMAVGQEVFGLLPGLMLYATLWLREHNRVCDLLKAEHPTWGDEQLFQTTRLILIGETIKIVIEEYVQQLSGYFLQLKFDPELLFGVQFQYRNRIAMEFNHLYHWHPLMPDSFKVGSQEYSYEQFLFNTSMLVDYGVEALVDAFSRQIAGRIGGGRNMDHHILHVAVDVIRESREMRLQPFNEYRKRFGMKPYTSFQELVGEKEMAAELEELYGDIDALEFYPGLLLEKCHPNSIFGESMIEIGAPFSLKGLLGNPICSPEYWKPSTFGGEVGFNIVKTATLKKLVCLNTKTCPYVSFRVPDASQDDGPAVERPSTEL
Chain of Carbonic anhydrase 7 (Homo sapiens) (P43166 whole entry): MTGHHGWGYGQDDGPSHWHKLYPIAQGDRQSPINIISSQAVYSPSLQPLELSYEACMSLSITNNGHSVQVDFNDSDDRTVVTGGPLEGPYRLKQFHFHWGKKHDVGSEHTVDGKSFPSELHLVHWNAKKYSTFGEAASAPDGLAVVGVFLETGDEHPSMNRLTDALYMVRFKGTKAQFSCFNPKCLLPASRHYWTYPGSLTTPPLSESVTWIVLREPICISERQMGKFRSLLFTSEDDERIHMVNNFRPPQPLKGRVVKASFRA
Chain of Carbonic anhydrase 1 (Homo sapiens) (P00915 2-261 limits assumed): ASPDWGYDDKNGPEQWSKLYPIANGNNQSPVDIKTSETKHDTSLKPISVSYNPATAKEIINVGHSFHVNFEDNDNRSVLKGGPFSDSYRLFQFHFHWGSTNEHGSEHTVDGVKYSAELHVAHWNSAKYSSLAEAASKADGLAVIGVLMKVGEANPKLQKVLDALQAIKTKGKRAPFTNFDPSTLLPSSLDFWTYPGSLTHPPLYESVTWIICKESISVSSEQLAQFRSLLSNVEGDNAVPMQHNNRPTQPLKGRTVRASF
Chain of Carbonic anhydrase 12 (Homo sapiens) (O43570 whole entry): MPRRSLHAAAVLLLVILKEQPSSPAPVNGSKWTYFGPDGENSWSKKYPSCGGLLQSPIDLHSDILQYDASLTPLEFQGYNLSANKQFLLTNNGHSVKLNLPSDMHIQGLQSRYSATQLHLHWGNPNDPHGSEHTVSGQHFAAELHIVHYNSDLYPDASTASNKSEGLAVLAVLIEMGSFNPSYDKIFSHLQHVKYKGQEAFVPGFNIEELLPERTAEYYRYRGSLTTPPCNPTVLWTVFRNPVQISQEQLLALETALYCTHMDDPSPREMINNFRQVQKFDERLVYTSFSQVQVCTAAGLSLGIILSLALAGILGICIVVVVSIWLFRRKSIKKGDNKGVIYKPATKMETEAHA
Chain of Carbonic anhydrase 4 (Homo sapiens) (P22748 whole entry): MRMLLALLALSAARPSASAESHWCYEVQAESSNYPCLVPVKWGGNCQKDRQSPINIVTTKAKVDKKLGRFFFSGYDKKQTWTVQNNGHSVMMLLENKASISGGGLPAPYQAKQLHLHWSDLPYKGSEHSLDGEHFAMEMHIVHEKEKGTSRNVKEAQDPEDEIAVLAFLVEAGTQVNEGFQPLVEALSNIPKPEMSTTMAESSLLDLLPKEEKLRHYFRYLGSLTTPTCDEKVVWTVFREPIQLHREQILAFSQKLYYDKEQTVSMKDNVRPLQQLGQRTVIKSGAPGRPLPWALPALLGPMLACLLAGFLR

Row | inhibition at 5 min, 10 µM [5] | Ki [6] | Ki [13] | half-life [14] | half-life [15] | Ki [18] | Stability [20] | Ki [21] | Ki [23] | Ki [24] | SMILES | other results
1 |  |  |  |  |  |  |  |  |  |  | O=c1ccc2cc(OCCO)ccc2o1 | Activity [1]: 51.7 g; Activity [2]: Active; Activity [3]: 18.4 g
2 | 5 to 30% | > 10 µM | > 10 µM | 31 min | 4.7 min | > 10 µM | Stable | 0.0023 µM | 0.0369 µM | 0.0831 µM | CC(C(=O)OCCOc1ccc2oc(=O)ccc2c1)c1cccc(C(=O)c2ccccc2)c1 (racemic) | Activity [4]: <=53.8 g; Activity [7]: Active; Activity [8]: Dose-dependent effect; Activity [9]: <=50 g; Activity [10]: 49.4 g; Activity [11]: inactive; Activity [12]: Active; Activity [16]: Dose-dependent effect; Activity [17]: Active; Activity [19]: Active; Activity [22]: inactive; Activity [25]: 100%; Activity [26]: Active; Activity [27]: <=64.4 g
3 | 5 to 30% | > 10 µM | > 10 µM | 12 min | 2.1 min | > 10 µM | Stable | 0.0067 µM | 0.0354 µM | 0.0554 µM | CC(C(=O)OCCOc1ccc2ccc(=O)oc2c1)c1cccc(C(=O)c2ccccc2)c1 (racemic) | solubility [28]: Insoluble; Activity [29]: Active; Activity [30]: inactive
